Consider one compound from patent publication US11453703B2, “Heterotandem bicyclic peptide complexes” (BicycleTX Limited, priority 2018, dated 2022).

Data set [1] deals with human PBMC co-cultured with 4T1-D02 (Nectin4+). As to the kind of experiment: Human PBMC-4T1 co-culture (cytokine release) assay. In kind it is cell-based. The following applies: anti-CD3 stimulated PBMC, 48 hours. On the procedure:
Mouse mammary gland tumor cell line 4T1-1 (4T1-Parental) and murine Nectin-4 overexpressing 4T1 (4T1-D02) were cultured in RPMI1640 supplemented with 10% heat-inactivated Fetal Bovine Serum, 100 I.U/ml Penicillin and 100 I.U/Streptomycin, 20 mM HEPES, 1× Non-Essential Amino Acids, and 2 mM L-Glutamine (RPMI working medium). Frozen PBMCs from healthy human donors were thawed and washed one time in room temperature PBS, and then resuspended in RPMI working medium. For tumor cell and PBMC co-culture, 10000 PBMCs and 2000 tumor cells (5:1) were mixed and plated in each well of a 384 well plate. For stimulating human PBMCs, 125 ng/ml of soluble anti-CD3 mAb (clone OKT3) was added to the culture on day 0. Test, control compounds or vehicle controls were added to respective wells and brought the final volume per well to 100u1. Plates were incubated in a 37° C. cell culture incubator with 5% CO2 for up to three days. Supernatants were collected 48 hours after stimulation, and human IL-2 and IFFγ were detected using HTRF assays. Raw data were analyzed using Excel or Prism software to generate standard curves to interpolate protein concentrations. Data represents one study with three different donor PBMC tested in experimental duplicates.

Data set [2] concerns the target CD137 (Homo sapiens, UniProt Q07011). As to the kind of experiment: CD137 reporter assay, co-culture with Nectin-4 tumour cells.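 Further: jurkat reporter cells co-cultured with tumour cells and test article for 6 h, luminescence signal relative to Jurkat plus tumour cells lacking test article.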 Also noted: host or cells: Jurkat reporter cells. The data set is classed as cell-based. (In general: Reporter assays use an easily measured gene product as a stand-in for the process of interest.)

The structures appear in SMILES notation.

Chain of CD137 (Q07011 24-255): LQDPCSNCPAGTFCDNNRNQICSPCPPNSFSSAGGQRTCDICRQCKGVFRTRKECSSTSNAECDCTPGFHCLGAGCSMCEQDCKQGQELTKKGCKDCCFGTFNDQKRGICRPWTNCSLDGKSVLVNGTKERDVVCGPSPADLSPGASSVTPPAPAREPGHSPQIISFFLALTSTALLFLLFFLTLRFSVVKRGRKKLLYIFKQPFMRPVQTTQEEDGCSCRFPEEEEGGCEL

Usually EC50 stands for the midpoint of the concentration-response curve. A lower EC50 goes with higher potency in that assay. Regarding `CCCC[C@@H]1NC(=O)[C@H](Cc2ccc(O)cc2)NC(=O)[C@@H]2CCCN2C(=O)[C@H](CC(=O)O)NC(=O)[C@H](C)NC(=O)[C@H](Cc2ccccc2)NC(=O)[C@@H]2CSCCC(=O)N3CN(CN(C3)C(=O)CCSC[C@@H](C(=O)N[C@@H](CNC(=O)CCOCCOCCOCCOCCOCCOCCOCCOCCOCCOCCOCCOCCn3cc(CCC(=O)NCCC(=O)N(C)CC(=O)N(C)CC(=O)N(C)CC(=O)N(C)CC(=O)N(C)CC(=O)N(C)CC(=O)N(C)CC(=O)N(C)CC(=O)N(C)CC(=O)N(C)CC(=O)N[C@H]4CSCCC(=O)N5CN6CN(C5)C(=O)CCSC[C@H](NC(=O)[C@@H](CC(=O)O)NC(=O)[C@H](Cc5cccc7ccccc57)NC(=O)[C@@H]5CCCN5C4=O)C(=O)N[C@@H](CCSC)C(=O)N[C@@H](CCCCNC(=N)N)C(=O)N[C@@H](CC(=O)O)C(=O)N[C@@H](Cc4c[nH]c5ccccc45)C(=O)N[C@@H](CO)C(=O)N[C@@H]([C@@H](C)O)C(=O)N4CCC[C@H]4C(=O)N4C[C@H](O)C[C@H]4C(=O)N[C@@H](Cc4c[nH]c5ccccc45)C(=O)N[C@H](C(N)=O)CSCCC6=O)nn3)C(N)=O)NC1=O)C(=O)CCSC[C@H](NC(=O)[C@H](C)NC(C)=O)C(=O)N[C@@H]([C@@H](C)CC)C(=O)N[C@@H](CCC(=O)O)C(=O)N[C@@H](CCC(=O)O)C(=O)NCC(=O)N[C@@H](CCC(N)=O)C(=O)N[C@@H](Cc1ccc(O)cc1)C(=O)N2` [BCY8854], the EC50 in data set [1] (IFN-γ secretion) is 0.89 nM; in data set [2], 1.2 nM. Further, the “max IFN-y” value in data set [1] was found to be 15962 pg/mL. For the same compound, the “Fold Induction over Background” value in data set [2] (tumour target Nectin4, co-culture with H1376, 6 h) was 30 fold.
